Test results from ChEMBL document CHEMBL1147084, “From the Cover: Antipsychotic drug-induced weight gain mediated by histamine H1 receptor-linked activation of hypothalamic AMP-kinase” (Proc Natl Acad Sci U S A, 2007).
Activity calls are given as the source filed them. The calls are words filed in the database; no cut-off is given here.

Assays:
[1] = test system: Hypothalamus; assay: Increase in phospho-AMPK levels in H1RKO mouse hyphalamic slices at 500 nM after 30 mins by Western blotting; assay type: functional, tissue-based
[2] = species on record: Mus musculus; assay: Orexigenic activity in H1RKO mouse; assay type: functional, organism-based
[3] = test system: Mus musculus; assay: Increase in phospho-AMPK levels in intact H1RKO mouse hypothalamus at 3 mg/kg, ip after 3 hrs by Western blotting; assay type: functional, organism-based; design: dose 3 mg/kg
[4] = test system: Mus musculus; assay: Increase in alpha-2AMPK levels in intact H1RKO mouse cerebellum at 1 mg/kg after 3 hrs; assay type: functional, organism-based; design: dose 1 mg/kg
[5] = species on record: Mus musculus; assay: Reversal of leptin-induced reduction in hyphalamic phospho-AMPK level in H1RKO mouse at 50 nM after 30 mins by Western blotting; assay type: functional, organism-based
[6] = species on record: Mus musculus; assay: Reversal of insulin-induced reduction in hyphalamic phospho-AMPK level in H1RKO mouse at 50 nM after 30 mins by Western blotting; assay type: functional, organism-based
[7] = species on record: Mus musculus; assay: Reversal of histamine-induced reduction in hyphalamic phospho-AMPK level in H1RKO mouse at 200 nM after 30 mins by Western blotting; assay type: functional, organism-based
[8] = test system: Mus musculus; assay: Increase in phospho-AMPK in H1R knockout mouse at 3 mg/kg by immunohistochemistry; assay type: functional, organism-based; design: dose 3 mg/kg
[9] = test system: Mus musculus; assay: Increase in alpha-2AMPK levels in intact H1RKO mouse cerebral cortex at 1 mg/kg after 3 hrs; assay type: functional, organism-based; design: dose 1 mg/kg
[10] = test system: Mus musculus; assay: Increase in phospho-AMPK level in arcuate hyphalamic nuclei intact H1RKO mouse at 1 mg/kg after 3 hrs by immunohistochemistry; assay type: functional, organism-based; design: dose 1 mg/kg
[11] = test system: Mus musculus; assay: Increase in phospho-AMPK level in arcuate hyphalamic nuclei intact H1RKO mouse at 5 mg/kg after 3 hrs by immunohistochemistry; assay type: functional, organism-based; design: dose 5 mg/kg
[12] = test system: Mus musculus; assay: Increase in phospho-AMPK levels in intact H1RKO mouse hypothalamus at 1 mg/kg after 3 hrs; assay type: functional, organism-based; design: dose 1 mg/kg
[13] = test system: Mus musculus; assay: Increase in alpha-2AMPK levels in intact H1RKO mouse hypothalamus at 1 mg/kg after 3 hrs; assay type: functional, organism-based; design: dose 1 mg/kg
[14] = test system: Mus musculus; assay: Increase in phospho-AMPK levels in intact H1RKO mouse cerebellum at 1 mg/kg, ip after 3 hrs by Western blotting; assay type: functional, organism-based; design: dose 1 mg/kg
[15] = test system: Mus musculus; assay: Increase in phospho-AMPK levels in intact H1RKO mouse liver at 1 mg/kg, ip after 3 hrs by Western blotting; assay type: functional, organism-based; design: dose 1 mg/kg
[16] = test system: Mus musculus; assay: Increase in cortical alpha-2AMPK levels in intact H1RKO mouse at 5 mg/kg after 3 hrs; assay type: functional
[17] = test system: Mus musculus; assay: Increase in alpha-2AMPK levels in intact H1RKO mouse cerebellum at 5 mg/kg after 3 hrs; assay type: functional, organism-based; design: dose 5 mg/kg
[18] = test system: Mus musculus; assay: Reversal of leptin-induced reduction in hyphalamic phospho-AMPK in H1RKO mouse at 5 mg/kg after 3 hrs by Western blotting; assay type: functional, organism-based; design: dose 5 mg/kg
[19] = test system: Mus musculus; assay: Reversal of leptin-induced reduction in hyphalamic alpha-2AMPK activity in H1RKO mouse at 5 mg/kg; assay type: functional, organism-based; design: dose 5 mg/kg
[20] = test system: Mus musculus; assay: Increase in phospho-AMPK level in paraventricular hyphalamic nuclei intact H1RKO mouse at 1 mg/kg after 3 hrs by immunohistochemistry; assay type: functional, organism-based; design: dose 1 mg/kg
[21] = test system: Mus musculus; assay: Increase in phospho-AMPK level in paraventricular hyphalamic nuclei intact H1RKO mouse at 5 mg/kg after 3 hrs by immunohistochemistry; assay type: functional, organism-based; design: dose 5 mg/kg
[22] = biological target: T1, Leptin receptor (Homo sapiens) (UniProt P48357); assay: Binding affinity to leptin receptor at 10 nM
T1 sequence (whole entry): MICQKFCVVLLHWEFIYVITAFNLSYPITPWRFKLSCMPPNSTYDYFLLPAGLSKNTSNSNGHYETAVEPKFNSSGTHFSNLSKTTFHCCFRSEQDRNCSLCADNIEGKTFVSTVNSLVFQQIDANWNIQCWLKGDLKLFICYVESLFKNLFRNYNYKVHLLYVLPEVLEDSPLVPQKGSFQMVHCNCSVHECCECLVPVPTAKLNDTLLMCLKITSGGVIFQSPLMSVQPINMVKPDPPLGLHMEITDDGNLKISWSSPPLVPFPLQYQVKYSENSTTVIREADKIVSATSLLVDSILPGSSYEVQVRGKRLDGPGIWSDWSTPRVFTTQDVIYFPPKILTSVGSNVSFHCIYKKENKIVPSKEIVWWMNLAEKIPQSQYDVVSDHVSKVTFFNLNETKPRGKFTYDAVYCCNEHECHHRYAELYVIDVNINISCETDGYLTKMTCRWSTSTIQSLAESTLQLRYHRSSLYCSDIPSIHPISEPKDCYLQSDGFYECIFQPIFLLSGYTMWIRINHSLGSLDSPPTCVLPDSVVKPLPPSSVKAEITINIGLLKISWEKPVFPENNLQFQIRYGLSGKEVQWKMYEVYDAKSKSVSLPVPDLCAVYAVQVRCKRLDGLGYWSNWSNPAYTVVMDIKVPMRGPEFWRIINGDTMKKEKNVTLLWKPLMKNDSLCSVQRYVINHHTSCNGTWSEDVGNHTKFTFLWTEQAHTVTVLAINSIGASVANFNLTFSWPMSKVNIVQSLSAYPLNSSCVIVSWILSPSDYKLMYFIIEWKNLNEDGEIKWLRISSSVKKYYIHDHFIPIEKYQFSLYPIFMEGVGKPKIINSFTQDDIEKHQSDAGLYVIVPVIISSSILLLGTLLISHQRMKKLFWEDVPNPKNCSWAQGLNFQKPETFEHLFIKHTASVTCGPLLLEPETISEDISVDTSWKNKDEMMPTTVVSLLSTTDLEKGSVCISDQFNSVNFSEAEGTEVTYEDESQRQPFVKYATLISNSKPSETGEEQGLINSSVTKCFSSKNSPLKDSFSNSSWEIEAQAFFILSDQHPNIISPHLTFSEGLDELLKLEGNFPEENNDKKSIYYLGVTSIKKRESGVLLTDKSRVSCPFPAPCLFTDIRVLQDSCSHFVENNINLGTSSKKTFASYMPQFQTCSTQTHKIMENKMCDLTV

[23] = biological target: T1, Leptin receptor (Homo sapiens); assay: Binding affinity to leptin receptor at 100 nM
[24] = Binding affinity to alphaMSH receptor at 10 nM
[25] = Binding affinity to alphaMSH receptor at 100 nM
[26] = biological target: T2, Neuropeptide Y receptor type 1 (Homo sapiens) (UniProt P25929); assay: Binding affinity to neuropeptide Y receptor at 10 nM
T2 sequence (whole entry): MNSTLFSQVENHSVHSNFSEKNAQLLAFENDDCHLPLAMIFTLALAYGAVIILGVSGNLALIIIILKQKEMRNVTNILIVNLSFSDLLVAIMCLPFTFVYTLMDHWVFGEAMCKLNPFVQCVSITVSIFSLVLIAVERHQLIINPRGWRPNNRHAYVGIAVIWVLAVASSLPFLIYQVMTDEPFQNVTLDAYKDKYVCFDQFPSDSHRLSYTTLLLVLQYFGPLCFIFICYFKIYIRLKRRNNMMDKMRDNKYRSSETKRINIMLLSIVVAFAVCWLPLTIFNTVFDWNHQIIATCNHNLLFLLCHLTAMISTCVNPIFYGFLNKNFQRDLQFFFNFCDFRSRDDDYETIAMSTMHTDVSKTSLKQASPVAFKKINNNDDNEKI

[27] = biological target: T2, Neuropeptide Y receptor type 1 (Homo sapiens); assay: Binding affinity to neuropeptide Y receptor at 100 nM
[28] = test system: Mus musculus; assay: Increase in phospho-AMPK level in paraventricular hyphalamic nuclei intact H1RKO mouse at 3 mg/kg, ip after 3 hrs by immunohistochemistry; assay type: functional, organism-based; design: dose 3 mg/kg
[29] = biological target: Histamine H1 receptor (Rattus norvegicus, UniProt P31390); assay: biochemical
Sequence of Histamine H1 receptor (P31390 whole entry): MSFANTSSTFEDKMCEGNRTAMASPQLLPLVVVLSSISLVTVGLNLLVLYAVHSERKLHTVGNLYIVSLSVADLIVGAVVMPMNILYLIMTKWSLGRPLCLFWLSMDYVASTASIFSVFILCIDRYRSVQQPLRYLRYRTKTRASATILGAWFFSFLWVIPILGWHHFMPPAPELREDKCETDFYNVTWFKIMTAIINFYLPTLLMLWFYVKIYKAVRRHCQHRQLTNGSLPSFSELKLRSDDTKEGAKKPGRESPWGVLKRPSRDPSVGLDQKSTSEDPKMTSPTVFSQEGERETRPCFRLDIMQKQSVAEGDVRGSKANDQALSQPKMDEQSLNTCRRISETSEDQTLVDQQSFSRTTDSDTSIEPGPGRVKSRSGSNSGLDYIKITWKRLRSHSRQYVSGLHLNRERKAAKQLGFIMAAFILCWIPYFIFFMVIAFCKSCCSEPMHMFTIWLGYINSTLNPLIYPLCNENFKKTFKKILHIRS
Description: Displacement of [3H]mepyramine from H1R in rat brain

SMILES: O=C(CCCN1CCC(O)(c2ccc(Cl)cc2)CC1)c1ccc(F)cc1
- Activity [1]: inactive
- Activity [2]: inactive

SMILES: Cc1ccc(/C(=C\CN2CCCC2)c2ccccn2)cc1
- Activity [3]: Active
- Activity [1]: Active

SMILES: CN1CCN(C2=Nc3cc(Cl)ccc3Nc3ccccc32)CC1 [CLOZAPINE]
- Activity [4]: inactive
- Activity [5]: Active
- Activity [6]: Active
- Activity [7]: Active
- Activity [8]: inactive
- Activity [9]: inactive
- Activity [10]: Active
- Activity [11]: Active
- Activity [1]: Active
- Activity [2]: Active
- Activity [12]: Active
- Activity [13]: Active
- Activity [14]: inactive
- Activity [15]: inactive
- Activity [16]: 20%
- Activity [17]: inactive
- Activity [18]: Active
- Activity [19]: Active
- Activity [20]: Active
- Activity [21]: Active
- Activity [22]: inactive
- Activity [23]: inactive
- Activity [24]: inactive
- Activity [25]: inactive
- Activity [26]: inactive
- Activity [27]: inactive

SMILES: O=C1Cc2cc(CCN3CCN(c4nsc5ccccc45)CC3)c(Cl)cc2N1
- Activity [1]: inactive
- Activity [2]: inactive
- Activity [28]: inactive

SMILES: OCCOCCN1CCN(C2=Nc3ccccc3Sc3ccccc32)CC1
- Activity [1]: Active
- Activity [2]: Active

SMILES: Cc1cc2c(s1)Nc1ccccc1N=C2N1CCN(C)CC1
- Activity [1]: Active
- Activity [2]: Active
- Activity [22]: inactive
- Activity [23]: inactive
- Activity [24]: inactive
- Activity [25]: inactive
- Activity [26]: inactive
- Activity [27]: inactive

SMILES: O=C1CCc2ccc(OCCCCN3CCN(c4cccc(Cl)c4Cl)CC3)cc2N1 [ARIPIPRAZOLE]
- Activity [1]: inactive
- Activity [2]: inactive
- IC50 [29]: > 3 µM

SMILES: Cc1nc2n(c(=O)c1CCN1CCC(c3noc4cc(F)ccc34)CC1)CCCC2
- Activity [1]: inactive
